In patent publication US20220411381A1, “PYRIMIDINEDIONE DERIVATIVES” (Bayer Aktiengesellschaft, priority 2019, published 2022) one finds IC50 data, which are given here for five compounds.

SMILES strings stand for the structures. Read-outs that look alike come from different tables or passages of the source.

Assay [1] addresses T1, recombinant human BCAT1 enzyme (Homo sapiens, UniProt P54687).
T1 construct: purchased ATGen (South Korea) ATGP1479
T1 sequence (P54687 1-386): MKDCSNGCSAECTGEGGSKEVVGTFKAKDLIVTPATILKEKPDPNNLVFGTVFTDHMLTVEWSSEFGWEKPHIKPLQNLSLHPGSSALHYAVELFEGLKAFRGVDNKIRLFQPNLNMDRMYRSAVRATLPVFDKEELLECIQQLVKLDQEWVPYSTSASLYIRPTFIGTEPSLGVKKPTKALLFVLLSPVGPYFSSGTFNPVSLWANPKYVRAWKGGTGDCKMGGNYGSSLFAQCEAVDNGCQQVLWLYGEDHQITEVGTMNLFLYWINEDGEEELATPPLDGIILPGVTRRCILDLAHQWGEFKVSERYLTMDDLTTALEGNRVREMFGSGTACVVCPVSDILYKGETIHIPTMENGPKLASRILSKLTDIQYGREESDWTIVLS
Description: In vitro assay 1a: BCAT1 biochemical assay (coupled LeuDH/NADH fluorescence readout). The note with it: recombinant human BCAT1 […], 32° C., 100 μM leucine, 50 μM α-ketoglutarate, NADH fluorescence over 90 min; read-out: BCAT1 IC50. In outline:
(§1)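 Transamination of leucine to KIC coupled to LeuDH-driven NADH-dependent reduction of KIC, NADH consumption read by fluorescence; 32° C in 50 mM HEPES pH 8.0, 50 mM ammonium sulfate, 1 mM EDTA, 2 mM DTT, 0.01% BSA, 0.005% Brij 35, 0.5 μM PLP.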

Assay [2] has as its target T2, recombinant human BCAT2 enzyme (Homo sapiens, UniProt O15382).
T2 construct: purchased ATGen (South Korea) ATGP1523
T2 sequence (O15382 28-392): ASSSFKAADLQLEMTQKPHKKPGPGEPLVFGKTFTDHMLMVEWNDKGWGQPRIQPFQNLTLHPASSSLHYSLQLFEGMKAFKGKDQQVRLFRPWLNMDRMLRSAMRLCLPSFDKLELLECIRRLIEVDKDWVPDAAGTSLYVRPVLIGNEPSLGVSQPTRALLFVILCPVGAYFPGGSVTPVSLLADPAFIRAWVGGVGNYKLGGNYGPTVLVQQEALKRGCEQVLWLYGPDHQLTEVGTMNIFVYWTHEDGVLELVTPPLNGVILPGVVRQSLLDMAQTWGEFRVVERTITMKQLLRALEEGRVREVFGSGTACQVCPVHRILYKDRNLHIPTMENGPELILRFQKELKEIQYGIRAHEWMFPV
As to the kind of experiment: In vitro assay 1b: BCAT2 biochemical assay (coupled LeuDH/NADH fluorescence readout). Also: recombinant human BCAT2 0.75 nM. The note with it: recombinant human BCAT2 […], 32° C., 100 μM leucine, 50 μM α-ketoglutarate, NADH fluorescence over 90 min; read-out: BCAT2 IC50. In outline: as §1

A further assay concerns MDA-MB231 cells. As to the kind of experiment: In vitro assay 2: BCAT cellular assay, leucine in medium of MDA-MB231 cells. The assay is classed as cell-based. The note with it: 24 hours incubation, leucine level in medium (LeuDH/diaphorase/resazurin readout), read-out: MDAMB-231 IC50. As to the method:
(§2) In Vitro Assay 2: BCAT Cellular Assay
(§3) Levels of leucine were measured in medium of different tumor cell lines. The enzyme BOAT (Branched chain amino acid transferase) catalyzes the consumption of leucine.
(§4) Cells (U87-MG and MDA-MB231 from ATCC) were grown in Dulbecco's Modified Eagle Medium (DMEM) containing 10% fetal calf serum. They were harvested by trypsin and seeded into 96-well plates. Cells were incubated overnight at 37° C. in an atmosphere containing 5% carbon dioxide. The next day test compounds were added to each cell well. The final concentration of dimethylsulfoxide (DMSO) was 0.1% and DMSO controls were included. The plates were then placed in an incubator for 24 hours.
(§5) Leucine was measured in an enzymatic readout with leucine dehydrogenase (LeuDH) and diaphorase. Medium is deproteinized with perchloric acid. 30 μl of 1 M aqueous perchloric acid was added to each well and the plates were centrifuged.
(In general: Alamar Blue is a resazurin reagent that responds to reducing activity.)

For a further assay, the system named is U87-MG cells. As to the kind of experiment: In vitro assay 2: BCAT cellular assay, leucine in medium of U87-MG cells. The assay is classed as cell-based. The note with it: Homo sapiens, U-87 MG, 24 h, 24 hours incubation, leucine level in medium (LeuDH/diaphorase/resazurin readout). As to the method: as §2, §3, §4, §5

As a reminder, the IC50 is the point on the concentration scale where inhibition reaches its midpoint. As for `Cc1cc(C#N)c(Oc2ccccc2Cl)cc1-n1c(=O)cc(C(F)(F)F)[nH]c1=O` (racemic) [Example 10, 2-(2-Chlorophenoxy)-4-[2,6-dioxo-4-(trifluoromethyl)-3,6-dihydropyrimidin-1 (2H)-yl]-5-methylbenzonitrile (rac)], the IC50 was 0.39 µM in assay [1]; 6 µM in assay [2]; greater than 30 µM in the assay on MDA-MB231 cells; 30 µM with MDA-MB231 cells (Homo sapiens, MDA-MB-231, 24 h); 13 µM with U87-MG cells.

With `COc1cc(C#N)c(Oc2ccccc2Cl)cc1-n1c(=O)cc(C(F)(F)F)[nH]c1=O` (single isomer, unassigned) [Example 16, 2-(2-Chlorophenoxy)-4-[2,6-dioxo-4-(trifluoromethyl)-3,6-dihydropyrimidin-1(2H)-yl]-5-methoxybenzonitrile (atrop 1)], the IC50 is 0.15 µM in assay [1]; 2.5 µM in assay [2]; 10.8 µM in the assay with MDA-MB231 cells (Homo sapiens, MDA-MB-231, 24 h); 5.4 µM with U87-MG cells.

In the case of `Cc1ccccc1Oc1cc(-n2c(=O)cc(C(F)(F)Cl)[nH]c2=O)c(F)cc1C#N` [Example 40, 4-{4-[Chloro(difluoro)methyl]-2,6-dioxo-3,6-dihydropyrimidin-1(2H)-yl}-5-fluoro-2-(2-methylphenoxy)benzonitrile], the IC50 in assay [1] amounted to 0.445 µM; in assay [2], 2.2 µM; in the assay on MDA-MB231 cells (Homo sapiens, MDA-MB-231, 24 h), 12 µM; with U87-MG cells, 4.63 µM.

Turning to `N#Cc1ccc(-n2c(=O)cc(C(F)(F)F)[nH]c2=O)cc1Oc1ccccc1Cl` [Example 46, 2-(2-Chlorophenoxy)-4-[2,6-dioxo-4-(trifluoromethyl)-3,6-dihydropyrimidin-1 (2H)-yl]benzonitrile], the IC50 in assay [1] was 0.675 µM; in assay [2] it was 6 µM; in the assay on MDA-MB231 cells (Homo sapiens, MDA-MB-231, 24 h), greater than 30 µM; in the assay on U87-MG cells, 25 µM.

As to `Cc1ccccc1Oc1cc(-n2c(=O)cc(Br)[nH]c2=O)c(F)cc1C#N` [Example 3, 4-(4-Bromo-2,6-dioxo-3,6-dihydropyrimidin-1(2H)-yl)-5-fluoro-2-(2-methylphenoxy)benzonitrile], the IC50 is 0.315 µM in assay [1]; 5.5 µM in assay [2]; greater than 30 µM in the assay with MDA-MB231 cells (Homo sapiens, MDA-MB-231, 24 h); 11.1 µM with U87-MG cells.
